{
  "source": "ChEMBL document CHEMBL1140636",
  "about": "“Targeting cytochrome P450 enzymes: a new approach in anti-cancer drug development” (Bioorg Med Chem, 2007)",
  "key": {"Cytochrome P450 1B1": {"molecular_target": "T1, Cytochrome P450 1B1 (Homo sapiens, UniProt Q16678)", "T1 sequence (Q16678 whole entry)": "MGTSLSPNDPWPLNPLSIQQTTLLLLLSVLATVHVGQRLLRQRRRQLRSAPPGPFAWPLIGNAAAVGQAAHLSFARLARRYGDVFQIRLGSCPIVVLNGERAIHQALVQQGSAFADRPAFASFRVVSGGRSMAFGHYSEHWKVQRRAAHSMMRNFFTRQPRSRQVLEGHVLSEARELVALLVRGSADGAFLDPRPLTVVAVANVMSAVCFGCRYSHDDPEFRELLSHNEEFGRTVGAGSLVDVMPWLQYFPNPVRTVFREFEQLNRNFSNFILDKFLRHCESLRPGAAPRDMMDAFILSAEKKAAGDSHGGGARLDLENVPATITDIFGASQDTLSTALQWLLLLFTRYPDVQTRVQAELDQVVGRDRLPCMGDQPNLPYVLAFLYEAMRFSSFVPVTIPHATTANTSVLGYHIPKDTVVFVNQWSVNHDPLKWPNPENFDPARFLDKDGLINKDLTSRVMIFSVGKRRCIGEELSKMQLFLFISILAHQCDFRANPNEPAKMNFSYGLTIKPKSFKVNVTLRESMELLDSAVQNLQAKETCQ", "test": "Inhibition of CYP1B1", "type": "ADME"}, "Cytochrome P450 1A1": {"molecular_target": "T2, Cytochrome P450 1A1 (Homo sapiens, UniProt P04798)", "T2 sequence (P04798 whole entry)": "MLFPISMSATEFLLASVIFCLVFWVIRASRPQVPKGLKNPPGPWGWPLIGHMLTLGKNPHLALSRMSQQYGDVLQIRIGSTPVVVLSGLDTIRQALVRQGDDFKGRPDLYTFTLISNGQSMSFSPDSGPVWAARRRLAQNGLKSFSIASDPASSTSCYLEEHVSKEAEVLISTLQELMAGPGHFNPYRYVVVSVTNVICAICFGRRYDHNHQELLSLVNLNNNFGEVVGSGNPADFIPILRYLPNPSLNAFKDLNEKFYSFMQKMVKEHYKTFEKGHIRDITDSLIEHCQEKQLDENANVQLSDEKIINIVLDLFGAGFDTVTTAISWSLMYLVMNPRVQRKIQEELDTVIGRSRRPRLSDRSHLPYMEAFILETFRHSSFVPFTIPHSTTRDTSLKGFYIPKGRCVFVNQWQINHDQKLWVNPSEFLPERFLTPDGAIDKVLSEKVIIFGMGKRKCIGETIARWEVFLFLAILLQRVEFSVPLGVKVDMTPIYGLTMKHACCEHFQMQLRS", "test": "Inhibition of CYP1A1", "type": "ADME"}, "Cytochrome P450 1A2": {"molecular_target": "T3, Cytochrome P450 1A2 (Homo sapiens, UniProt P05177)", "T3 sequence (P05177 whole entry)": "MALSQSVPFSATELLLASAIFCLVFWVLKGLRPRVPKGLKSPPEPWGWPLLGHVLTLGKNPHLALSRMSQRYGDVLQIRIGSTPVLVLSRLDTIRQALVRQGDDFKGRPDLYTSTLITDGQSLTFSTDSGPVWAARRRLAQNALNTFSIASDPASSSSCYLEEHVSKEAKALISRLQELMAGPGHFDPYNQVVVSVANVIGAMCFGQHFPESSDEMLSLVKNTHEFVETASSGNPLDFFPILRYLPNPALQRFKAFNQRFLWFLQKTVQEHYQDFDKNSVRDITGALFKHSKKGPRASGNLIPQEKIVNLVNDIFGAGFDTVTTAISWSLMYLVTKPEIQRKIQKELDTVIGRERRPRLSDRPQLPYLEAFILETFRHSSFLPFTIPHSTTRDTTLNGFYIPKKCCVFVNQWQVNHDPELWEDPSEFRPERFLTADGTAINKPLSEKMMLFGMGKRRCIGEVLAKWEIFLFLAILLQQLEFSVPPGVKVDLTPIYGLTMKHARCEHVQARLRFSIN", "test": "Inhibition of CYP1A2", "type": "ADME"}, "[1]": {"molecular_target": "T4, 1,25-dihydroxyvitamin D(3) 24-hydroxylase, mitochondrial (Homo sapiens, UniProt Q07973)", "T4 sequence (Q07973 whole entry)": "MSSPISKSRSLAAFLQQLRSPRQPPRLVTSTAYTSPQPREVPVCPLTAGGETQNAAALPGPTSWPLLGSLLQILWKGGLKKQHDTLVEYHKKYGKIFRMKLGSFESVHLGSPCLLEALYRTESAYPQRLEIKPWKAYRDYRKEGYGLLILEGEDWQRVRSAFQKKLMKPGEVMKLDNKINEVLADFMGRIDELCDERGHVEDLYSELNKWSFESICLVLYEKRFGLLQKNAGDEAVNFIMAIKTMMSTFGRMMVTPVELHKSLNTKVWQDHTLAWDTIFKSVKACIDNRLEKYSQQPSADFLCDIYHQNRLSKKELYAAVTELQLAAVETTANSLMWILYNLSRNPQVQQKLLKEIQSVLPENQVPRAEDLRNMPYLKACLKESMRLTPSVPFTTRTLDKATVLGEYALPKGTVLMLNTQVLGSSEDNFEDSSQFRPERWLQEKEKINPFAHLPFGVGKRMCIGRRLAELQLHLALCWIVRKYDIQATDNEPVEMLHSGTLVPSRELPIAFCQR", "test": "Inhibition of CYP24 in human keratinocytes", "type": "cell-based"}, "[2]": {"molecular_target": "T5, 25-hydroxyvitamin D-1 alpha hydroxylase, mitochondrial (Homo sapiens, UniProt O15528)", "T5 sequence (O15528 whole entry)": "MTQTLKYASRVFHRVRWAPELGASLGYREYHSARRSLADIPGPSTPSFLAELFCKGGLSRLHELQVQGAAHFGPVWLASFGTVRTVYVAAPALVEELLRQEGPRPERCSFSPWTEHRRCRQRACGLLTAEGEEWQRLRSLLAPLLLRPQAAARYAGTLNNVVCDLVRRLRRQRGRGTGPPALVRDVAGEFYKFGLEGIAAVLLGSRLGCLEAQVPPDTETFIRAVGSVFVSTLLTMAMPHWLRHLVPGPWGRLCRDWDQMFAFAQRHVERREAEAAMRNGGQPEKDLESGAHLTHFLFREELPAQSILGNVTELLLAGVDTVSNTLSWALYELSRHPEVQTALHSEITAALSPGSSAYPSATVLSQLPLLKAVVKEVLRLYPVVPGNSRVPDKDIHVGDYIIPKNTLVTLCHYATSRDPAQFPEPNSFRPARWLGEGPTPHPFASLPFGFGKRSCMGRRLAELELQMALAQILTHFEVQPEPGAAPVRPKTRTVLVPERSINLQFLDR", "test": "Inhibition of CYP27B1 in human keratinocytes", "type": "cell-based"}, "[3]": {"molecular_target": "T4, 1,25-dihydroxyvitamin D(3) 24-hydroxylase, mitochondrial", "test": "Inhibition of CYP24"}, "[4]": {"molecular_target": "T5, 25-hydroxyvitamin D-1 alpha hydroxylase, mitochondrial", "test": "Inhibition of CYP27B1"}, "[5]": {"molecular_target": "T6, Sterol 26-hydroxylase, mitochondrial (Homo sapiens, UniProt Q02318)", "T6 sequence (Q02318 whole entry)": "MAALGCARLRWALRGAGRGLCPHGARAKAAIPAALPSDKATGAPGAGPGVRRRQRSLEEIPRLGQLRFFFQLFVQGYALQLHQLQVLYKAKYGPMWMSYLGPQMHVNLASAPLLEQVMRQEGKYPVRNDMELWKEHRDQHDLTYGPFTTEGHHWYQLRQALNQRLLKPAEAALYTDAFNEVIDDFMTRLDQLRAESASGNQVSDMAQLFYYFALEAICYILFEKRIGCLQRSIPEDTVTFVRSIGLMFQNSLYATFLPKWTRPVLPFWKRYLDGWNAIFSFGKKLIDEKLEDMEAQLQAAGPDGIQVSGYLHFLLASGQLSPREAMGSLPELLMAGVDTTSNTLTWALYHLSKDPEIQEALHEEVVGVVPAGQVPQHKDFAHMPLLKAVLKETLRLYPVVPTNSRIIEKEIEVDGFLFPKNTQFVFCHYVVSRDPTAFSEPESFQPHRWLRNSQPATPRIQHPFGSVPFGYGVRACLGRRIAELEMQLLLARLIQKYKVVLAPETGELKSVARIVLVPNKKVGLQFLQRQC", "test": "Inhibition of CYP27A1"}, "Cytochrome P450 26A1": {"molecular_target": "T7, Cytochrome P450 26A1 (Homo sapiens, UniProt O43174)", "T7 sequence (O43174 whole entry)": "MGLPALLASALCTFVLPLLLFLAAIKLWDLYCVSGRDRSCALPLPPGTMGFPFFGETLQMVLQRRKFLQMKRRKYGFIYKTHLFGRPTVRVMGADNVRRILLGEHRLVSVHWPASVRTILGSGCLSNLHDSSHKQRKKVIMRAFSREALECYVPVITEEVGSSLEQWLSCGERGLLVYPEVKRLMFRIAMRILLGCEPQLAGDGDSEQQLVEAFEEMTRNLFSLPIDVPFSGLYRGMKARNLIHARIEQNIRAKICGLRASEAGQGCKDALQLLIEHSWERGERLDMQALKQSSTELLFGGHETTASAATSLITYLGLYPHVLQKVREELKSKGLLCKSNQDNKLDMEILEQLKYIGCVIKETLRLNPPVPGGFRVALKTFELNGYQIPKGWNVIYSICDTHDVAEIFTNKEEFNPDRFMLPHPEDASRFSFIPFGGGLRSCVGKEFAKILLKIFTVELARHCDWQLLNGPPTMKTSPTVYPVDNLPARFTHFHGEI", "test": "Inhibition of CYP26"}, "[6]": {"molecular_target": "T8, Aryl hydrocarbon receptor (Homo sapiens, UniProt P35869)", "T8 sequence (P35869 whole entry)": "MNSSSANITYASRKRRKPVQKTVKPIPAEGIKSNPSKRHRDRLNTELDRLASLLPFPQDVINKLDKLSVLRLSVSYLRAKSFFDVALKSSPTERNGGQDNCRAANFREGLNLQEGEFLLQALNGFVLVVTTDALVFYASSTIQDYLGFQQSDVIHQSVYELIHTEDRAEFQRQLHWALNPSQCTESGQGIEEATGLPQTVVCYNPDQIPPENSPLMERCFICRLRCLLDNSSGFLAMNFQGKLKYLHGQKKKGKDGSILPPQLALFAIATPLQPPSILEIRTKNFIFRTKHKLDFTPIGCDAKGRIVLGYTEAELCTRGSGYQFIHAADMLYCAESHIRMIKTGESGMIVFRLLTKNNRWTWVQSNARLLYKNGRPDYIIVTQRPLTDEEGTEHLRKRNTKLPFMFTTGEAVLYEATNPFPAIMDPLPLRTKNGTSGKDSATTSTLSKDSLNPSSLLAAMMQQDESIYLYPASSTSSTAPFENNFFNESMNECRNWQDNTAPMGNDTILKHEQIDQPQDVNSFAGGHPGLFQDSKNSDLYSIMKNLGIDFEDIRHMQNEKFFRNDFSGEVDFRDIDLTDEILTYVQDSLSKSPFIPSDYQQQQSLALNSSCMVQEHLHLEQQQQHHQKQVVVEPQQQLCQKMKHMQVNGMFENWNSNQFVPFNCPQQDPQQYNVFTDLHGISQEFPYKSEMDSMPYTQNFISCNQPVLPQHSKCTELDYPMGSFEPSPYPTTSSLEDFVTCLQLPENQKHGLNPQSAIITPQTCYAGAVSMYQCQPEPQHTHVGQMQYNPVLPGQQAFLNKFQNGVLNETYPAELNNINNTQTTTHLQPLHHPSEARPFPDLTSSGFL", "test": "Inhibition of aryl hydrocarbon receptor"}, "[7]": {"test": "Inhibition of cigarette smoke condensate-induced growth of immortalized human BEAS-2B cells by soft agar colony assay", "type": "functional"}},
  "data": [
    {"smiles": "COc1cc(/C=C\\c2cccs2)cc(OC)c1", "values": [
      {"measurement": "IC50", "setting": "Cytochrome P450 1B1", "result": 2, "unit": "nM"},
      {"measurement": "IC50", "setting": "Cytochrome P450 1A1", "result": 61, "unit": "nM"},
      {"measurement": "IC50", "setting": "Cytochrome P450 1A2", "result": 11, "unit": "nM"}
    ]},
    {"smiles": "CC#Cc1ccc2c(ccc3ccccc32)c1", "values": [
      {"measurement": "IC50", "setting": "Cytochrome P450 1B1", "result": 30, "unit": "nM"},
      {"measurement": "IC50", "setting": "Cytochrome P450 1A1", "result": 150, "unit": "nM"},
      {"measurement": "IC50", "setting": "Cytochrome P450 1A2", "result": 60, "unit": "nM"}
    ]},
    {"smiles": "O=C(NCC(c1ccccc1)n1ccnc1)c1ccc(-c2ccc(Cl)cc2)cc1", "note": "(stereo not drawn)", "values": [
      {"measurement": "IC50", "setting": "[1]", "result": 15, "unit": "nM"},
      {"measurement": "IC50", "setting": "[2]", "result": 616, "unit": "nM"}
    ]},
    {"smiles": "C=C1/C(=C\\C=C2/CCC[C@]3(C)C([C@H](C)CC[S+](=N)([O-])c4ccccc4)=CCC23)C[C@@H](O)C[C@@H]1O", "note": "(stereo partly drawn)", "values": [
      {"measurement": "IC50", "setting": "[3]", "result": 7.4, "unit": "nM"},
      {"measurement": "IC50", "setting": "[4]", "result": 554, "unit": "nM"},
      {"measurement": "IC50", "setting": "[5]", "result": "> 1000", "unit": "nM"}
    ]},
    {"smiles": "Clc1cccc(C(c2ccc3nc[nH]c3c2)N2C=NCC2)c1", "note": "(stereo not drawn)", "values": [
      {"measurement": "IC50", "setting": "Cytochrome P450 26A1", "result": 2200, "unit": "nM"}
    ]},
    {"smiles": "O=c1c(O)c(-c2ccc(O)cc2)oc2cc(O)cc(O)c12", "note": "[KAEMPFEROL]", "values": [
      {"measurement": "IC50", "setting": "[6]", "result": 28, "unit": "nM"},
      {"measurement": "IC90", "setting": "[7]", "result": 10000, "unit": "nM"}
    ]},
    {"smiles": "Clc1ccc(-c2cc(Cl)c(Cl)c(Cl)c2)cc1Cl", "note": "[POLYCHLORINATED BIPHENYL 126]", "values": [
      {"measurement": "IC50", "setting": "Cytochrome P450 1B1", "result": 11, "unit": "nM"}
    ]},
    {"smiles": "c1cc2ccc3cccc4ccc(c1)c2c34", "note": "[PYRENE]", "values": [
      {"measurement": "IC50", "setting": "Cytochrome P450 1B1", "result": 2, "unit": "nM"},
      {"measurement": "IC50", "setting": "Cytochrome P450 1A1", "result": 41, "unit": "nM"},
      {"measurement": "IC50", "setting": "Cytochrome P450 1A2", "result": 7, "unit": "nM"}
    ]}
  ]
}
